These results are taken from US20050049229A1, “Therapeutic applications of 2-hydroxyacetanilide” (priority 2003, published 2005).

For data set [1], the system named is carrageenan-induced rat-paw oedema. The data set is described as follows: carrageenan-induced rat paw oedema (plethysmographic method). Particulars: for Mean paw volume ± SEM after 5 hr: 30 min before carrageenan; for Anti-inflammatory Activity Mean ± SEM: A−B/A×100 vs control, in %. It counts as in vivo. As for the experimental part:
The plethysmographic method (Winter et al., Proc. Soc. Exp. Biol. Med. III, 1962, pp. 544-547) was then used for recording the volume changes in the rat paw. […] Another two groups received paracetamol at a dose of 300 or 500 mg kg^−1, and a further two groups received aspirin at a dose of 150 or 300 mg kg^−1, while the control group received saline or distilled water. […] The difference in paw volumes before and after the carrageenan injections indicated the volume of inflammation. Anti-inflammatory activities were calculated as A−B/A×100, where A and B denote mean paw volume of control and drug-treated animals respectively.
Background: In the carrageenan paw model, swelling and tenderness develop within hours.

In data set [2] the test system is platelet aggregation induced by AA, PAF or collagen. The data set can be described thus: in vitro platelet aggregation in human platelet rich plasma. It counts as cell-based. The conditions noted are these: human PRP. Here is the method: Blood was drawn by vein puncture from healthy human volunteers reported to be free of medications for at least one week. The blood samples were mixed with 3.8% w/v sodium citrate solution (9:1) and centrifuged at 260 g for 15 minutes at 20° C. to obtain platelet rich plasma (PRP). The platelet count was determined by phase contrast microscopy and all aggregation studies were carried out at 37° C. with PRP having platelet counts between 2.5 and 3.0×10^8/ml of plasma. All experiments were performed within 2 hours of PRP preparation.
Platelet aggregation was monitored using a Dual-channel Lumi-aggregometer (Model 400 Chronolog Corporation, Chicago, USA) using 0.45 ml aliquots of PRP. The final volume was made up to 0.5 ml with the test compound dissolved either in normal saline or an appropriate solvent known to be devoid of any effect on aggregation. Aggregation was induced by arachidonic acid (AA), platelet activating factor (PAF) or collagen.
Anti-platelet aggregation effects were studied by pretreatment of PRP with 2-hydroxyacetanilide or paracetamol for 1 minute followed by the addition of the maximum dose of agonist (i.e. AA, PAF or collagen). The resulting aggregation was monitored for 5 minutes following agonist addition by the change in light transmission as a function of time.
The results were expressed as percentage inhibition after the addition of aggregation agents compared with controls. Once the anti-platelet aggregation activity of the inhibitors against these agonists was established, dose-response curves were constructed to calculate the IC50 values of the inhibitors.

Data set [3] deals with acetic acid induced writhing. The data set is described as follows: acetic acid induced writhing test in mice. It counts as in vivo, mouse. Particulars: for No. of writhings: 30 min before 1% acetic acid IP, counted 10 minutes. As for the experimental part:
Analgesia was assessed by the method of Koster et al. (Federation Proceedings, 1959, 18, pp. 412-416), otherwise known as the acetic acid induced writhing test. When acetic acid is injected intraperitoneally it causes abdominal contractions or writhings, a syndrome characterized by a wave of contraction of the abdominal musculature followed by extension of hind limbs. By counting the number of writhes a measure of the effective analgesia provided can be obtained.
Male Wister mice (20-25 g) were divided into six groups, with five mice per group, for use in the writhing assay. The compounds 2-hydroxyacetanilide or paracetamol were administered orally 30 minutes prior to an intraperitoneal injection of 1% acetic acid. Immediately after administering the acetic acid, the number of writhings were counted and recorded for the subsequent 10 minutes. Analgesic potency was taken as difference between a test group mean and its control.
(In general: Writhing tests count abdominal constrictions after an irritant is injected.)

The subject of data set [4] is platelet aggregation induced by AA, PAF or collagen. The data set can be described thus: in vivo platelet aggregation (PRP from orally dosed rabbits). Particulars: Oryctolagus cuniculus, 500 mg/kg oral, blood 2 hours after. On the set-up: species or system rabbit. As for the experimental part: Both 2-hydroxyacetanilide and paracetamol were tested for in vivo platelet aggregation activity at a dose of 500 mg kg^−1. The compounds were first separately dissolved in 0.5% w/v gum tragacanth and then administered orally to albino rabbits of either sex. Control groups received only the vehicle.
Blood was drawn from the marginal ear of the rabbits 2 hours after drug administration. The blood was then mixed with 3.8% w/v sodium citrate solution (9:1) and centrifuged at 260 g for 15 minutes at 20° C. to prepare platelet rich plasma (PRP). The platelet count was determined by phase contrast microscopy and all aggregation studies were carried out at 37° C. with PRP having platelet counts between 2.5 and […] /ml of plasma. The experiments were performed within 2 hours of PRP preparation.
Platelet aggregation was monitored using a Dual-Channel Lumi-aggregometer (Model 400 Chronolog Corporation, Chicago, USA) using 0.45 ml aliquots of PRP. Aggregation was induced with platelet activating factor (PAF, 0.8 μM), collagen (20 μg mL^−1) or arachidonic acid (AA, 1.7 mM).

For data set [5] the following is noted: overdose, about twenty 500 mg tablets; cited from earlier work.
A further data set deals with PAF-induced mortality. The data set can be described thus: prevention of PAF-induced mortality in rabbits. The format is in vivo, rabbit. As for the experimental part:
Male rabbits (New Zealand White, 3-3.5 kg) were used to test the ability of 2-hydroxyacetanilide, paracetamol and aspirin to prevent the lethality of intravenous PAF.
PAF was prepared before each injection by dissolution in saline to give a final concentration of 22 μg ml^−1. The resulting solution was injected into the marginal ear vein of the rabbits over a period of approximately 1 minute. In preliminary experiments it was established that an intravenous dose of 11 μg kg^−1 PAF was required to induce consistently fatal pulmonary thrombosis in the animals (n=6). This dose of PAF was used in subsequent experiments with 2-hydroxyacetanilide and paracetamol.
Rabbits were pretreated by intraperitoneal injection of either 2-hydroxyacetanilide (100 or 300 mg kg^−1), paracetamol (300 or 500 mg kg^−1) or aspirin (50 mg kg^−1) 2 hours before the challenging dose of PAF. Each animal was used for only one experiment.

Data set [6] relates to platelet aggregation induced by collagen, arachidonic acid (AA) and adenosine diphosphate (ADP). Particulars: Dupin et al.; cited from earlier work.

The term IC50 denotes the concentration needed to halve the response being measured. In general, inhibition refers to how much of the control response was suppressed.

Read-outs that look alike come from different tables or passages of the source. Marks after values point to notes of the source that are not given here. Where only a bound is given, the exact number is not on record here.

For the compound `CC(=O)Nc1ccc(O)cc1` [Paracetamol, 4-hydroxyacetanilide], the “Mean paw volume ± SEM after 5 hr” value came to 0.75 ± 0.06 mL in data set [1] (dose 300 mg/kg) and 0.72 ± 0.07 mL in data set [1] (dose 500 mg/kg). Moreover, the “Anti-inflammatory Activity Mean ± SEM” value in data set [1] (dose 300 mg/kg) was found to be 6 ± 2; in data set [1] (dose 500 mg/kg), 10 ± 3. Also, the IC50 in data set [2] (aggregation agent AA, read-out: IC50 ± SEM, platelet aggregation induced by AA) amounted to 136 ± 1 µM; in data set [2] (aggregation agent PAF, read-out: IC50 ± SEM, platelet aggregation induced by PAF), 167 ± 8 µM; in data set [2] (aggregation agent collagen, read-out: IC50 ± SEM, platelet aggregation induced by Collagen) it was 263 ± 1 µM. Besides, the No. of writhings turned out to be 20 in data set [3] (300 mg/kg oral) and 3.2 in data set [3] (500 mg/kg oral). In data set [3] (Mus musculus, 300 mg/kg oral), the inhibition at 300 mg/kg is 33%. Also, the inhibition at 500 mg/kg came to 89% in data set [3] (Mus musculus, 500 mg/kg oral); 5 ± 3% in data set [4] (AA 1.7 mM, read-out: % inhibition of in vivo platelet aggregation induced by AA); 8 ± 2% in data set [4] (PAF 0.8 μM, read-out: % inhibition of in vivo platelet aggregation induced by PAF). The “dose that may cause hepatocellular necrosis” value in data set [5] is no less than 10 g. Also, the Survival in the data set on PAF-induced mortality (300 mg/kg IP 2 hours before PAF 11 μg/kg IV) is 0/10; with PAF-induced mortality (500 mg/kg IP 2 hours before PAF 11 μg/kg IV), 2/10.
Regarding `CC(=O)Oc1ccccc1C(=O)O` [Aspirin], in data set [1] (dose 150 mg/kg), the “Mean paw volume ± SEM after 5 hr” value is 0.58 ± 0.08 mL and the “Anti-inflammatory Activity Mean ± SEM” value was found to be 28 ± 9. For the same compound, in data set [1] (dose 500 mg/kg), the “Mean paw volume ± SEM after 5 hr” value turned out to be 0.23 ± 0.03 mL and the “Anti-inflammatory Activity Mean ± SEM” value came to 71 ± 3. Also, the Survival in the data set with PAF-induced mortality (50 mg/kg IP 2 hours before PAF 11 μg/kg IV) is listed as 7/10*.
Turning to `CC(=O)Nc1cccc(O)c1` [3-hydroxyacetanilide], the “in vitro inhibition of platelet aggregation” value in data set [6] is listed as “comparable in vitro inhibition”.
